# Values of other authors as cited in US20060127478A1, “Oral dosage formulation” (priority 2003, published 2006).
# Read-outs that look alike come from different tables or passages of the source.
# What was measured:
# [1] = in vivo
# [2] = Taha et al., NEJM 1996
# gastric secretion = conditions: following oral administration
Compound,"incidence of adverse effects (abdominal pain, diarrhea, nausea, flatulence) [1]","frequency of gastric and duodenal ulcers associated with non-selective NSAIDs (diclofenac, ibuprofen, naproxen, ketoprofen) [2]","time at which basal, nocturnal, food and pentagastrin stimulated gastric secretion is inhibited (gastric secretion)",time to maximum effect on gastric secretion (gastric secretion; maximum effect dose dependent),"nocturnal intra-gastric pH, mean value (nocturnal dose of 20 mg)","nocturnal intra-gastric pH, mean value (nocturnal dose of 40 mg)",basal daytime inter-digestive pH (three and eight hours following administration after breakfast of 20 or 40 mg)
CCCCC(C)(O)C/C=C/[C@H]1[C@H](O)CC(=O)[C@@H]1CCCCCCC(=O)OC (mixture of isomers) [Misoprostol],high incidence,,,,,,
NC(N)=Nc1nc(CSCCC(N)=NS(N)(=O)=O)cs1 [Famotidine],,reduce the frequency,one,one to three,5.0,6.4,about 5
